According to ChEMBL document CHEMBL1125073, “Antitubulin effects of derivatives of 3-demethylthiocolchicine, methylthio ethers of natural colchicinoids, and thioketones derived from thiocolchicine. Comparison with colchicinoids” (J Med Chem, 1990):

Legend:
[1] = tested on: L1210; test: cells; conditions: Mus musculus
Description: In vitro cytotoxicity against L1210 (murine leukemia) cells.

[2] = species: Mus musculus; conditions: in vivo, im
Description: Acute toxicity after intramuscular injection in mice.

IC50 [1] [nM] | Compound | Toxicity [2] [mg/kg]
10 | COc1c2c(cc3c1-c1ccc(SC)c(=O)cc1[C@@H](NC(C)=O)CC3)OCO2 [THIOCORNIGERINE] | 
 | COc1c2c(cc3c1-c1ccc(OC)c(=O)cc1[C@@H](NC(C)=O)CC3)OCO2 | 9.7
30 | COc1cc2c(c(OC)c1OC)-c1ccc(SC)c(=S)cc1[C@@H](NC(C)=O)CC2 | 
40 | COc1cc2c(c(OC)c1OC)-c1ccc(SC)c(=S)cc1[C@@H](/N=C(/C)S)CC2 | 
